The source of these data is BindingDB's records for patent US20250091994 (Kobe University, 2025).

Structures are written as SMILES.

In general, IC50 refers to the concentration needed to halve the response being measured.

Sequence of GTPase HRas [G12V] (P01112 whole entry G12V, looked up): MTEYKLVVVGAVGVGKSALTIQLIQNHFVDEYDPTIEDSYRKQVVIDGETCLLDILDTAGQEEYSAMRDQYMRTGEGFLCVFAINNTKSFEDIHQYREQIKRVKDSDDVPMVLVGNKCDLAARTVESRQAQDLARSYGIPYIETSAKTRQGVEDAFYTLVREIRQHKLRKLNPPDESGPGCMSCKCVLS

The assay addresses GTPase HRas [G12V] (Homo sapiens, UniProt P01112, G12V). The assay can be described thus: In Vitro Ras-Raf Binding Inhibitory Activity Assay. The protocol:
The in vitro Ras-Raf binding inhibitory activity of the compound of the present invention was evaluated by an ELISA method described below. GST-c-Raf-1 RBD diluted with a Ras-Raf binding buffer (50 mM Tris-HCl pH7.4, 150 mM NaCl, 5 mM MgCl2, 1 mM EDTA, and 1% Triton-X100) was added to each well of a glutathione-coated 96-well plate (Thermo Fisher Scientific.), and was incubated at 30° C. for 1 hour, to immobilize Raf on the well. The unbound free Raf was eliminated by washing the well with the Ras-Raf binding buffer three times. Subsequently, GTPTS-bound HRasG12V diluted with the Ras-Raf binding buffer and each compound solution (final DMSO concentration: 10%) were applied to each well, and the resulting mixture was then incubated at 30° C. for 1 hour, so that Ras and Raf were allowed to bind to each other. Thereafter, the plate was washed with the Ras-Raf binding buffer twice, and was then subjected to a blocking treatment at room temperature for 20 minutes, using TBS-Tween {10 mM Tris-HCl pH 7.4, 150 mM NaCl, and 0.05% (w/v) Tween-20}-5% (w/v) bovine serum albumin (BSA). After that, an anti-HRas antibody (C-20, Santa Cruz) or an anti-HRas antibody (259, Santa Cruz), which had been 1000 times diluted with TBS-Tween-5% BSA, was added to the reaction mixture, and incubated at room temperature for 1 hours. After the treatment with the primary antibody, the plate was washed with TBS-Tween-5% BSA three times, and a horseradish peroxidase-labeled secondary antibody against rabbit immunoglobulin G (GE Healthcare) of 1000 times diluted with TBS-Tween-5% BSA, was added to the plate, followed by incubation at room temperature for 1 hour. After the treatment with the secondary antibody, the plate was washed with TBS-Tween-5% BSA three times, and a substrate solution (TMB) was then added to the plate, followed by incubation at room temperature for 15 minutes for coloration. Finally, 2 M H2SO4 was added to stop color development (coloration reaction kit: Nacalai Tesque).
For the compound `COc1cc(/C=C2/C(=O)c3ccccc3N2C(C)=O)ccc1OCC(=O)N1CCCC1` [US20250091994, Example 14], the concentration for half-maximal inhibition (IC50) worked out at 5700 nM. In turn, `CC(=O)N1CCc2cc(-c3cc(/C=C4/C(=O)c5ccccc5N4C(C)=O)nc4ccccc34)ccc2C1` [US20250091994, Example 187] yielded an IC50 of 500 nM. As to `CC(=O)N1C(=Cc2cc(C(=O)N3CCN(C4COC4)CC3)c3ccccc3n2)C(=O)c2ccccc21` [US20250091994, Example 204], the IC50 was 1800 nM. Consider `CC(=O)N1/C(=C\c2ccc3cc(C#N)ccc3n2)C(=O)c2ccccc21` [US20250091994, Example 34], for which the IC50 is 2800 nM. Turning to `CC(=O)NCc1cccc2c1C(=O)/C(=C/c1ccc3cc(C(=O)N4CCOCC4)ccc3n1)N2C(C)=O` [US20250091994, Example 106], the IC50 turned out to be 4100 nM.

With `CC(=O)N1C(=Cc2cc(CN3CCOCC3=O)c3ccccc3n2)C(=O)c2ccccc21` [US20250091994, Example 183], the half-inhibitory concentration (IC50) is 1400 nM. Then `COc1cc(/C=C2/C(=O)c3cccnc3N2C(C)=O)ccc1OCC(=O)N1CCOCC1` [US20250091994, Example 51], with 2100 nM; and `CC(=O)N1/C(=C\c2cc(-c3cccc(-c4cnn(C)c4)c3)c3cc(C(=O)N4CCOCC4)ccc3n2)C(=O)c2ccccc21` [US20250091994, Example 149], with 300 nM; and `CC(=O)N1/C(=C\c2cc(-c3ccccc3-c3cnn(C)c3)c3cc(C(=O)N4CCOCC4)ccc3n2)C(=O)c2ccccc21` [US20250091994, Example 196], with 800 nM. To `CC(=O)N1/C(=C\c2nc3ccc(C(=O)N4CCOCC4)cc3s2)C(=O)c2ccccc21` [US20250091994, Example 59] belongs 4000 nM; to `CC(=O)N1/C(=C\c2nc(-c3cnn(C)c3)c3ccccc3n2)C(=O)c2ccccc21` [US20250091994, Example 203], 600 nM. In the case of `CC(=O)N1/C(=C/c2nc3ccc(/C=C/S(=O)(=O)N4CCOCC4)cc3s2)C(=O)c2ccccc21` [US20250091994, Example 43], the IC50 came out at 7100 nM. Consider `CC(=O)N1C(=Cc2ccc3cc(CNS(C)(=O)=O)ccc3n2)C(=O)c2ccccc21` [US20250091994, Example 64], for which the IC50 came to 1100 nM. Compound `CC(=O)N1C(=Cc2cc(-c3cccc4ccccc34)c3cc(C(=O)N4CCOCC4)ccc3n2)C(=O)c2ccccc21` [US20250091994, Example 118] displayed an IC50 of 730 nM. Then `CCOC(=O)N1C(=Cc2ccc(OCC(=O)N3CCOCC3)c(OC)c2)C(=O)c2ccccc21` [US20250091994, Example 123], with 8500 nM.

With `CC(=O)N1C(=Cc2cc(-c3ccc(Oc4ccccc4)cc3)c3cc(C(=O)N4CCOCC4)ccc3n2)C(=O)c2ccccc21` [US20250091994, Example 92], the 50% inhibitory concentration (IC50) is 2800 nM. Compound `CC(=O)N1C(=Cc2cc(-c3ccc4c(c3)CCNC4=O)c3ccccc3n2)C(=O)c2ccccc21` [US20250091994, Example 190] yielded an IC50 of 900 nM. In turn, `CC(=O)N1/C(=C/c2nc3cc(C(=O)N4CC(C)OC(C)C4)ccc3s2)C(=O)c2ccccc21` (stereo not given) [US20250091994, Example 99] showed an IC50 of 780 nM. To `CC(=O)N1C(=Cc2ccc(OCC(=O)N3CCOCC3)c(-c3ccccc3)c2)C(=O)c2ccccc21` [US20250091994, Example 29] belongs 13000 nM. For the compound `CC(=O)N1/C(=C\c2ccc3c(-c4cnn(C)c4)c(C(=O)N4CCOCC4)ccc3n2)C(=O)c2ccccc21` [US20250091994, Example 199], the IC50 came to 2100 nM.

For the compound `CC(=O)N1/C(=C\c2cc(-c3cn(C)cn3)c3cc(C(=O)N4CCOCC4)ccc3n2)C(=O)c2ccccc21` [US20250091994, Example 192], the IC50 came out at 800 nM. With `CCCCOc1cc(/C=C2/C(=O)c3ccccc3N2C(C)=O)nc2ccc(C(=O)N3CCOCC3)cc12` [US20250091994, Example 84], the IC50 was 580 nM.

In turn, `CC(=O)N1/C(=C/c2nc3ccc(CNS(C)(=O)=O)cc3s2)C(=O)c2ccccc21` [US20250091994, Example 56] had an IC50 of 570 nM. `CC(=O)N1/C(=C\c2ccc3cc(OCC(=O)N4CCOCC4)ccc3n2)C(=O)c2ccccc21` [US20250091994, Example 65] showed an IC50 of 2400 nM. `COc1cc(/C=C2/C(=O)c3ccccc3N2C(C)=O)ccc1OCC(N)=O` [US20250091994, Example 1] returned an IC50 of 6900 nM. For the compound `CC(=O)N1/C(=C\c2cc(N=[N+]=[N-])c3cc(C(=O)N4CCOCC4)ccc3n2)C(=O)c2ccccc21` [US20250091994, Example 81], the IC50 was found to be 1100 nM. Then `CC(=O)N1CCc2cc(-c3c(C(=O)N4CCOCC4)ccc4nc(/C=C5/C(=O)c6ccccc6N5C(C)=O)ccc34)ccc2C1` [US20250091994, Example 200], with 1000 nM.

Compound `CC(=O)N1C(=Cc2ccc3cc(CNC4CCOCC4)ccc3n2)C(=O)c2ccccc21` [US20250091994, Example 131] yielded an IC50 of 1500 nM. The compound `CC(=O)N1/C(=C\c2ccc3cc(C(=O)N4CC(C)OC(C)C4)ccc3n2)C(=O)c2ccccc21` (stereo not given) [US20250091994, Example 44] displayed an IC50 of 960 nM. Take `CC(=O)N1C(=Cc2ccc3cc(C(=O)N4CCOCC4)ccc3n2)C(=O)c2ccccc21` [US20250091994, Example 28]: the 50% inhibitory concentration (IC50) is 880 nM. `COc1cc(C=C2C(=O)c3c(F)cccc3N2C(C)=O)ccc1OCC(=O)N1CCOCC1` [US20250091994, Example 104]: the IC50 came out at 9000 nM.

As for `CC(=O)N1/C(=C\c2cc(-c3cccnc3)c3cc(C(=O)N4CCOCC4)ccc3n2)C(=O)c2ccccc21` [US20250091994, Example 85], the IC50 came out at 580 nM. Turning to `COc1cc(/C=C2/C(=O)c3ccccc3N2C(C)=O)ccc1OCC(=O)N1CCOCC1` [US20250091994, Example 2], the IC50 is 7900 nM. `CC(=O)N1CCc2c(cccc2-c2cc(/C=C3/C(=O)c4ccccc4N3C(C)=O)nc3ccc(CNC4CCOCC4)cc23)C1` [US20250091994, Example 207] showed an IC50 of 700 nM. Then `CC(=O)N1/C(=C\c2cc(-c3cnn(C)c3)c3ccccc3n2)C(=O)c2ccccc21` [US20250091994, Example 177], with 800 nM. `CC(=O)N1/C(=C/c2nc3ccc(C(=O)N4CCOCC4)cc3s2)C(=O)c2ccccc21` [US20250091994, Example 58]: the IC50 was 700 nM.

On to `CC(=O)N1/C(=C\c2cc(Cl)c3cc(C(=O)N4CCOCC4)ccc3n2)C(=O)c2ccccc21` [US20250091994, Example 82], for which the IC50 was 610 nM. For the compound `CC(=O)N1/C(=C\c2cc(C#N)c3cc(C(=O)N4CCOCC4)ccc3n2)C(=O)c2ccccc21` [US20250091994, Example 86], the IC50 was found to be 1800 nM. To `CC(=O)N1/C(=C\c2ccc3cc(CN(C4CCOCC4)S(C)(=O)=O)ccc3n2)C(=O)c2ccccc21` [US20250091994, Example 76] belongs 1600 nM.

For `CC(=O)N1CCCC(c2cc(/C=C3/C(=O)c4ccccc4N3C(C)=O)nc3ccc(C(=O)N4CCOCC4)cc23)C1` (stereo not given) [US20250091994, Example 179], the IC50 is 1000 nM. `CC(=O)N1CCN(c2cc(/C=C3/C(=O)c4ccccc4N3C(C)=O)nc3ccc(C(=O)N4CCOCC4)cc23)CC1` [US20250091994, Example 90] came in with a 50% inhibitory concentration (IC50) of 1400 nM.

Compound `CC(=O)N1C(=Cc2ccc3cc(OCCO)ccc3n2)C(=O)c2ccccc21` [US20250091994, Example 126] came in with a half-inhibitory concentration (IC50) of 1400 nM. As for `CC(=O)N1/C(=C/c2cc(-c3cccc4[nH]ncc34)c3cc(C(=O)N4CCOCC4)ccc3n2)C(=O)c2ccccc21` [US20250091994, Example 145], the IC50 is 600 nM. With `COCCN1CCN(C(=O)c2ccc3nc(/C=C4/C(=O)c5ccccc5N4C(C)=O)ccc3c2)CC1` [US20250091994, Example 116], the half-inhibitory concentration (IC50) was determined as 8400 nM. Consider `CC(=O)N1C(=Cc2ccc3cc(C(=O)N4CCOCC4)ccc3c2)C(=O)c2ccccc21` [US20250091994, Example 66], for which the concentration for half-maximal inhibition (IC50) came out at 2300 nM. Regarding `CC(=O)N1C(=Cc2ccc(C(=O)N3CCOCC3)cc2)C(=O)c2ccccc21` [US20250091994, Example 67], the IC50 came out at 5600 nM. On to `COC1(CN2CCN(C(=O)c3ccc4nc(/C=C5/C(=O)c6ccccc6N5C(C)=O)ccc4c3)CC2)COC1` [US20250091994, Example 119], for which the IC50 amounted to 2900 nM.

Compound `COc1cc(/C=C2/C(=O)c3cc(F)ccc3N2C(C)=O)ccc1OCC(=O)N1CCOCC1` [US20250091994, Example 50] had an IC50 of 12000 nM. In the case of `COc1cc(C=C2C(=O)c3cccc(F)c3N2C(C)=O)ccc1OCC(=O)N1CCOCC1` [US20250091994, Example 105], the IC50 is 20000 nM.

Consider `COCC(O)CN1CCN(C(=O)c2ccc3nc(/C=C4/C(=O)c5ccccc5N4C(C)=O)ccc3c2)CC1` (stereo not given) [US20250091994, Example 42], for which the IC50 turned out to be 2800 nM.
